# Results taken from US11332494B2, “Nanoemulsions and methods for cancer therapy” (Fernando Thome Kreutz, priority 2016, dated 2022).
# pIC50: −log10 of the molar value. Where two headings read alike, the source gives them in different places.
# Key:
# Experiment in all cases: Cell viability assay (Hoechst 33342/PI, ImageXpress)
# Format in all cases: cell-based
# T98G = settings: human brain glioblastoma, Table 2
# Protocol: (§1) The purity of each oxysterol was determined to be 98% by GS/MS. For all experiments, a stock solution was prepared at a concentration of 1000 μM in absolute ethanol. The concentrations used in the experiments were in the range of those described to induce cell death on several cell lines. For the experiments, cells were plated at a density of 1.5×10^3 cells/[…] in triplicate in 96-well Black Flat Bottom Polystyrene Microplates (Corning, Mass.) and incubated in CO2 atmosphere. Several concentrations of each oxysterol (0 to 100 μM, 200 μL final volume) were added to the media, followed by incubation for 24 h. At the end of this experimental period, several parameters were determined in each of the three samples, as described hereafter.
# (§2) After 24 h cells were incubated with Hoechst 33342 (0.1 μg/mL) and 0.5 μl propidium iodide (PI) for 15 min. ImageXpress Micro high content screening system (Molecular Devices, Sunnyvale, Calif.) was used to determine the number of live and death cells. Nine sites per well and three wells per treatment were acquired. Cell Scoring MetaXpress software was used to analyze the number of cells and the viability. For IC50 calculations, survival data were evaluated by variable slope curve-fitting with GraphPad Prism.
# A172 = settings: A 172; A172, human brain glioblastoma; Table 2
# Protocol: as §1, §2
# Jurkat = settings: human acute T cell leukemia, Table 2
# Protocol: as §1, §2
# HepG-2 = settings: HepG2; HepG-2, human hepatocellular carcinoma; Table 2
# Protocol: as §1, §2
# U87-MG = settings: U-87 MG, human glioblastoma astrocytoma, Table 2
# Protocol: as §1, §2
# HeLa = settings: human cervix adenocarcinoma, Table 2
# Protocol: as §1, §2
# Raji = settings: human Burkitt's lymphoblast, Table 2
# Protocol: as §1, §2
# PC-3 = settings: PC-3, human prostate grade IV adenocarcinoma; Table 2
# Protocol: as §1, §2
# Molt-4 = settings: Molt-4, human acute lymphoblastic leukemia; Table 2
# Protocol: as §1, §2
# MRC-5 = settings: MRC5; MRC-5, human lung normal; Table 2
# Protocol: as §1, §2
# HUV-EC = settings: Homo sapiens, HUVEC, Table 4, time and unit inferred
# Protocol: as §1, with “hereafter. After 24 h cells were incubated with Hoechst 33342 (0.1 μg/mL) and 0.5 μl propidium iodide (PI) for 15 min. ImageXpress Micro high content screening system (Molecular Devices, Sunnyvale, Calif.) was used to determine the number of live and death cells. Nine sites per well and three wells per treatment were acquired. Cell Scoring MetaXpress software was used to analyze the number of cells and the viability. For IC50 calculations, survival data were evaluated by variable slope curve-fitting with GraphPad Prism.” for “hereafter.”
# LL 24 = settings: LL24, Table 4, time and unit inferred
# Protocol: as §1, with “hereafter. After 24 h cells were incubated with Hoechst 33342 (0.1 μg/mL) and 0.5 μl propidium iodide (PI) for 15 min. ImageXpress Micro high content screening system (Molecular Devices, Sunnyvale, Calif.) was used to determine the number of live and death cells. Nine sites per well and three wells per treatment were acquired. Cell Scoring MetaXpress software was used to analyze the number of cells and the viability. For IC50 calculations, survival data were evaluated by variable slope curve-fitting with GraphPad Prism.” for “hereafter.”
# MDA-MB-321 cell line = settings: for IC50: Table 3; for pIC50: MDA-MB-321, Table 4, time and unit inferred, read-out: IC50 MDA-MB-321
# Protocol: as §1, with “Several concentrations of each oxysterol (0 to 100 μM, 200 μL final volume) were added to the media, followed by incubation for 24 h.” left out
# as §2
# B16-F10 cell line = settings: Mus musculus; for IC50: Table 3; for pIC50: B16 F10, Table 4, time and unit inferred, read-out: IC50 B16 F10
# Protocol: as §1, with “Several concentrations of each oxysterol (0 to 100 μM, 200 μL final volume) were added to the media, followed by incubation for 24 h.” left out
# as §2
# [1] = MDA-MB-321, 24 h, read-out: MDA-MB-321 cell line IC50 (uM) 24 h
# [2] = MDA-MB-321, 48 h, read-out: MDA-MB-321 cell line IC50 (uM) 48 h
# [3] = MDA-MB-321, 72 h, read-out: MDA-MB-321 cell line IC50 (uM) 72 h
# [4] = B16-F10, 24 h, read-out: B16-F10 cell line IC50 (uM) 24 h
# [5] = B16-F10, 48 h, read-out: B16-F10 cell line IC50 (uM) 48 h
# [6] = B16-F10, 72 h, read-out: B16-F10 cell line IC50 (uM) 72 h
SMILES,pIC50 (T98G),pIC50 (A172),pIC50 (Jurkat),pIC50 (HepG-2),pIC50 (U87-MG),pIC50 (HeLa),pIC50 (Raji),pIC50 (PC-3),pIC50 (Molt-4),pIC50 (MRC-5),pIC50 (HUV-EC),pIC50 (LL 24),IC50 (MDA-MB-321 cell line; [1]) [µM],IC50 (MDA-MB-321 cell line; [2]) [µM],IC50 (MDA-MB-321 cell line; [3]) [µM],pIC50 (MDA-MB-321 cell line),IC50 (B16-F10 cell line; [4]) [µM],IC50 (B16-F10 cell line; [5]) [µM],IC50 (B16-F10 cell line; [6]) [µM],pIC50 (B16-F10 cell line)
"CC(C)CCCC(C)C1CCC2C3CC(O)C4(O)CC(O)CC[C@]4(C)C3CC[C@]12C (stereo in doubt) [Ox-2, Cholestane-3α-5β-6α-triol]",4.56,4.63,4.33,4.72,4.53,4.70,4.41,4.68,4.91,4.32,4.13,4.42,7.9,21.1,25.2,4.43,18.1,21.4,15.4,4.38
"CC(C)CCCC(C)C1CCC2C3CC(O)C4CC(O)CC[C@]4(C)C3CC[C@]12C (stereo in doubt) [Ox-4, (3α,5β,6α)-cholestane-3,6-diol]",–,–,–,–,–,–,–,–,–,–,–,4.55,66.6,39.7,35.3,4.23,58.3,52.9,82.6,4.37
"CC(C)CCC[C@@H](C)[C@H]1CC[C@H]2[C@@H]3C(=O)C=C4C[C@@H](O)CC[C@]4(C)[C@H]3CC[C@]12C [Ox-1, 7-Ketocholesterol]",–,4.81,4.25,4.37,4.25,4.48,4.20,4.72,4.42,4.10,4.40,4.31,54.4,50.4,48.1,4.42,19.9,21.7,29.6,4.45
"CC(C)CCC[C@H](C)C1CCC2C3C(=O)C=C4C=CCC[C@]4(C)C3CC[C@@]21C (stereo partly shown) [Ox-3, 3,5-cholestan-7-one]",–,–,–,–,–,–,–,–,–,–,–,–,–,–,–,–,–,377,52.9,3.93
"CC(=O)O[C@H]1CC[C@@]2(C)C(=CC[C@H]3[C@@H]4CC[C@H]([C@H](C)CCCC(C)C)[C@@]4(C)CC[C@@H]32)C1 [Ox-5, Cholesteryl acetate]",–,–,–,–,–,–,–,–,–,–,–,–,–,–,89.8,–,–,–,–,–
"CC(=O)O[C@H]1CC[C@@]2(C)C(=CC(=O)[C@H]3[C@@H]4CC[C@H]([C@H](C)CCCC(C)C)[C@@]4(C)CC[C@@H]32)C1 [Ox-6, 7-oxocholest-5-en-3-β-yl acetate]",–,–,–,–,–,–,–,–,–,–,–,–,–,8560,829,–,–,–,–,–
"CC(C)CCC[C@@H](C)[C@H]1CC[C@H]2[C@@H]3C(=O)[C@@H]4O[C@@]45C[C@@H](O)CC[C@]5(C)[C@H]3CC[C@]12C [Ox-8, (3α,5β,6α)-3-OH-5,6-epoxycholestan-7-one]",–,–,–,–,–,–,–,–,–,–,4.45,4.33,–,–,–,4.40,–,–,–,4.43
